Measurements from patent US20240341337A1, “METHOD FOR CREATING MASKING COMPOSITIONS” (GIVAUDAN SA, priority 2021, published 2024).

Legend:
[1] = Antagonist screening for pea protein off-notes on VAS aroma blending device, off-note Ex. C; design: key to Off-note Ex. C masking effect: +++ being most effective; ++ in the middle; + some effect; +/− being in between; − being no effect; details: off-note channel 3, 0.01% in MCT, flow 185; antagonist channel conc. as in Table 2 c2
Description: (§1) In one embodiment, the screening step is carried out using the above described aroma blending device as follows: each off-note molecule(s) identified from a target non-animal derived protein may be loaded into its own individual cartridge or channel (for example, propyl-iso-2-methoxy-3-pyrazine may be loaded into cartridge/channel #1, and isobutyl-3-methoxy-2-pyrazine may be loaded into cartridge/channel #2, etc.); next, the target non-animal protein is diluted as will be discussed below and may be loaded into its own individual cartridge/channel, for example, cartridge/channel #6 to act as the control or base; next, each antagonist candidate molecule that has been identified may be loaded into its own individual cartridge/channel (for example, molasses distillate may be loaded into cartridge/channel #7 and bisabolene may be loaded into cartridge/channel #8, etc). Next, the gas flow on the off-note molecule containing cartridge/channel is first opened, followed by one of the antagonist candidate molecule containing cartridges/channels. The intensity of the flow of the antagonist candidate molecule containing cartridge/channel is adjusted until the off-note is canceled or neutralized by the antagonist candidate molecule, i.e neutralization concentration. This process is repeated for each antagonist candidate molecule containing cartridges/channels so that all of the potential antagonist candidate molecules are screened.
(§2) Selection and screening of the antagonist molecules was performed using the VAS aroma blending device. As described above, each off-note molecule from Table 1 was loaded into its own individual cartridge or channel as shown in Table 2 (#'s 1-5). Each off-note molecule was diluted with medium-chain triglyceride (“MCT”) prior to loading into the cartridge/channel. Next, the target non-animal protein was diluted at 2% plus 0.1% xanthan gum in water with a small amount of antifoam agent (0.01%) and was placed into a cartridge/channel (#21). Each antagonist candidate molecule was then diluted with MCT in a pre-determined concentration and was loaded into a cartridge/channel as shown in Table 2 (#'s 6-20). Next, the gas flow (between 0 to 500 ml/min) on the off-note molecule containing cartridge/channel is first opened, followed by one of the antagonist candidate molecule containing cartridges/channels. The intensity of the flow of the antagonist candidate molecule containing cartridge/channel is adjusted until the off-note is canceled or neutralized by the antagonist candidate molecule, i.e neutralization concentration. This process is repeated for each antagonist candidate molecule containing cartridges/channels so that all of the potential antagonist candidate molecules are screened.
(§3) The numeric number in the column refers the flow rate on VAS aroma blending device.

[2] = Antagonist screening for pea protein off-notes on VAS aroma blending device, off-note Ex. E; design: key to Off-note Ex. E masking effect: +++ being most effective; ++ in the middle; + some effect; +/− being in between; − being no effect; details: off-note channel 5, 1.0% in MCT, flow 150; antagonist channel conc. as in Table 2 c2
Description: as §1, §2, §3

[3] = Antagonist screening for pea protein off-notes on VAS aroma blending device, off-note Ex. B; design: key to Off-note Ex. B masking effect: +++ being most effective; ++ in the middle; + some effect; +/− being in between; − being no effect; details: off-note channel 2, 0.001% in MCT, flow 150; antagonist channel conc. as in Table 2 c2
Description: as §1, §2, §3

[4] = Antagonist screening for pea protein off-notes on VAS aroma blending device, off-note Ex. A; design: key to Off-note Ex. A masking effect: +++ being most effective; ++ in the middle; + some effect; +/− being in between; − being no effect; details: off-note channel 1, 0.01% in MCT, flow 300; antagonist channel conc. as in Table 2 c2
Description: as §1, §2, §3

[5] = Antagonist screening for pea protein off-notes on VAS aroma blending device, off-note Ex. D; design: key to Off-note Ex. D masking effect: +++ being most effective; ++ in the middle; + some effect; +/− being in between; − being no effect; details: off-note channel 4, 0.10% in MCT, flow 15; antagonist channel conc. as in Table 2 c2
Description: as §1, §2, §3

C=CCOC(=O)CCC1CCCCC1 [Ally1 Cyclohexyl Proprionate]
Off-note Ex. C Flow Rate (antagonist channel) [1]: 100 mL/min | Off-note Ex. C masking effect [1]: +++ | Off-note Ex. E Flow Rate (antagonist channel) [2]: 175 mL/min | Off-note Ex. E masking effect [2]: ++ | Off-note Ex. B masking effect [3]: − | Off-note Ex. A Flow Rate (antagonist channel) [4]: 165 mL/min | Off-note Ex. A masking effect [4]: +/− | Off-note Ex. D masking effect [5]: −

CCOC(=O)CCC(=O)OCC [Diethyl Succinate]
Off-note Ex. C Flow Rate (antagonist channel) [1]: 200 mL/min | Off-note Ex. C masking effect [1]: +/− | Off-note Ex. B Flow Rate (antagonist channel) [3]: 300 mL/min | Off-note Ex. B masking effect [3]: ++ | Off-note Ex. A Flow Rate (antagonist channel) [4]: 250 mL/min | Off-note Ex. A masking effect [4]: ++ | Off-note Ex. D Flow Rate (antagonist channel) [5]: 200 mL/min | Off-note Ex. D masking effect [5]: ++

CCCCCCCCCCCCCCCC(=O)OCC [Ethyl Palmitate]
Off-note Ex. C Flow Rate (antagonist channel) [1]: 35 mL/min | Off-note Ex. C masking effect [1]: ++ | Off-note Ex. E Flow Rate (antagonist channel) [2]: 300 mL/min | Off-note Ex. E masking effect [2]: + | Off-note Ex. B Flow Rate (antagonist channel) [3]: 100 mL/min | Off-note Ex. A masking effect [4]: − | Off-note Ex. D masking effect [5]: −

CCOC(=O)C(C)O (stereo not drawn) [Ethyl lactate]
Off-note Ex. C Flow Rate (antagonist channel) [1]: 200 mL/min | Off-note Ex. C masking effect [1]: ++ | Off-note Ex. B Flow Rate (antagonist channel) [3]: 100 mL/min | Off-note Ex. B masking effect [3]: +++ | Off-note Ex. A Flow Rate (antagonist channel) [4]: 90 mL/min | Off-note Ex. A masking effect [4]: +++ | Off-note Ex. D Flow Rate (antagonist channel) [5]: 200 mL/min | Off-note Ex. D masking effect [5]: ++

Bisabolene
Off-note Ex. C masking effect [1]: − | Off-note Ex. E Flow Rate (antagonist channel) [2]: 150 mL/min | Off-note Ex. E masking effect [2]: + | Off-note Ex. B masking effect [3]: − | Off-note Ex. A masking effect [4]: − | Off-note Ex. D masking effect [5]: −

Caryophyllene
Off-note Ex. C masking effect [1]: − | Off-note Ex. E Flow Rate (antagonist channel) [2]: 200 to 225 mL/min | Off-note Ex. E masking effect [2]: + | Off-note Ex. B masking effect [3]: + | Off-note Ex. A Flow Rate (antagonist channel) [4]: 100 mL/min | Off-note Ex. A masking effect [4]: +++ | Off-note Ex. D Flow Rate (antagonist channel) [5]: 150 mL/min | Off-note Ex. D masking effect [5]: ++
